# Patent US7605176B2 (Boehringer Ingelheim International GmbH, priority 2004, dated 2009)
# Target: T1, hMCH-1R (Homo sapiens, UniProt Q99705)
# T1 construct: expressed in transfected cells
# Experiment: MCH-1 receptor binding test (125I-MCH binding to membranes of hMCH-1R transfected CHO/Galpha16 cells)
# Settings: competition with 100 pM 125I-MCH, membranes of CHO/Galpha16 cells stably transfected with hMCH-1R
# Description: Membranes from CHO/Galpha16 cells stably transfected with human hMCH-1R are resuspended using a syringe (needle 0.6×25 mm) and diluted in test buffer (50 mM HEPES, 10 mM MgCl2, 2 mM EGTA, pH 7.00; 0.1% bovine serum albumin (protease-free), 0.021% bacitracin, 1 μg/mL aprotinin, 1 μg/mL leupeptin, and 1 μM phosphoramidone) to a concentration of 5 to 15 μg/mL.
# After the incubation the reaction is filtered using a cell harvester through 0.5% PEI treated fiberglass filters (GF/B, Unifilter Packard). The membrane-bound radioactivity retained on the filter is then determined after the addition of scintillator substance (Packard Microscint 20) in a measuring device (TopCount of Packard).
# The analysis of the concentration binding curve is carried out on the assumption of one receptor binding site.
# T1 sequence (Q99705 whole entry): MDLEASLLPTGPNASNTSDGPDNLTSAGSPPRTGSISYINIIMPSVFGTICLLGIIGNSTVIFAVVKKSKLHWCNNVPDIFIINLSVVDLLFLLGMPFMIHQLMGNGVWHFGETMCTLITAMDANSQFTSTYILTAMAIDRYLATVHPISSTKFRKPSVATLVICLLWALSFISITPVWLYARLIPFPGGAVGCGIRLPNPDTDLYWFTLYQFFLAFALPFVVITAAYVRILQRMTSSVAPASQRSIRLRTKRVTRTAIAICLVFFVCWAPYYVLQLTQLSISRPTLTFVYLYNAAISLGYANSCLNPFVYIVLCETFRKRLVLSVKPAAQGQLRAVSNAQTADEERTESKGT
row,IC50,SMILES
1,63.7 nM,O=C(CC(=O)c1ccc(-c2ccccc2)cc1)NCCc1ccc(CN2CCCC2)cc1 [Example 5.1]
2,34.8 nM,CCN(CC)CCOc1ccc(NC(=O)CC(=O)c2ccc(C(F)(F)F)cc2Cl)cc1Cl [Example 7.1]

# System: not given
# Experiment: not given
# Settings: not given
row,SMILES,melting point
1,"COC(=O)c1cc(NC(=O)CC(=O)c2ccc(-c3ccccc3)cc2)ccc1OCCN1CCCC1 [Example 1.9, methyl 5-(3-biphenyl-4-yl-3-oxopropionylamino)-2-(2-pyrrolidin-1-ylethoxy)benzoate]",131 to 135 °C
2,O=C(CC(=O)c1ccc(-c2ccccc2)cc1)NCCc1ccc(CN2CCCC2)cc1 [Example 5.1],121 to 125 °C
3,"O=C(CC(=O)c1ccc(-c2ccccc2)cc1)Nc1ccc(OCCN2CCCC2)c(C(=O)O)c1 [Example 8, 5-(3-biphenyl-4-yl-3-oxopropionylamino)-2-(2-pyrrolidin-1-ylethoxy)benzoic acid]",236 to 240 °C

# Results, then the compound that gave them:
row,melting point,SMILES
1,135 to 139 °C,"CC1CCN(CCOc2ccc(NC(=O)CC(=O)c3ccc(-c4ccccc4)cc3)cc2Cl)CC1 [Example 1, 3-biphenyl-4-yl-N-{3-chloro-4-[2-(4-methylpiperidin-1-yl)ethoxy]phenyl}-3-oxopropionamide]"
2,148 to 151 °C,"CCN(CC)CCOc1ccc(NC(=O)CC(=O)c2ccc(-c3ccccc3)cc2)cc1Cl [Example 7, 3-biphenyl-4-yl-N-[3-chloro-4-(2-diethylaminoethoxy)phenyl]-3-oxopropionamide]"
